From ChEMBL document CHEMBL1781885, “Cytotoxic norsesquiterpene peroxides from the endophytic fungus Talaromyces flavus isolated from the mangrove plant Sonneratia apetala” (J Nat Prod, 2011)
≈ marks a conversion by molar mass, not a printed value. Calls of active or inactive are those of the source. No cut-off for these calls is given here.

How the values were obtained:
[1] = system: Staphylococcus aureus; test: Antimicrobial activity against Staphylococcus aureus ATCC 27154 at 50 ug/ml; assay type: functional, organism-based
[2] = system: MDA-MB-435; test: Cytotoxicity against human MDA-MB-435 after 6 days by MTT method; assay type: functional, cell-based; settings: MDA-MB-435, 144 h
[3] = system: Escherichia coli; test: Antimicrobial activity against Escherichia coli ATCC 25922 at 50 ug/ml; assay type: functional, organism-based
[4] = system: HeLa; test: Cytotoxicity against human HeLa cells after 6 days by MTT method; assay type: functional, cell-based; settings: 144 h
[5] = system: Candida albicans; test: Antimicrobial activity against Candida albicans ATCC 10231 at 50 ug/ml; assay type: functional, organism-based
[6] = system: Artemia salina; test: Toxicity in Artemia salina; assay type: organism-based; settings: in vivo
[7] = system: Pseudomonas aeruginosa; test: Antimicrobial activity against Pseudomonas aeruginosa ATCC 25668 at 50 ug/ml; assay type: functional, organism-based
[8] = system: HepG2; test: Cytotoxicity against human HepG2 after 6 days by MTT method; assay type: functional, cell-based; settings: HepG2, 144 h
[9] = system: Aspergillus niger; test: Antimicrobial activity against Aspergillus niger ATCC 13496 at 50 ug/ml; assay type: functional, organism-based
[10] = system: MCF7; test: Cytotoxicity against human MCF7 cells after 6 days by MTT method; assay type: functional, cell-based; settings: MCF7, 144 h
[11] = system: Sarcina ventriculi; test: Antimicrobial activity against Sarcina ventriculi ATCC 29068 at 50 ug/ml; assay type: functional
[12] = system: PC-3; test: Cytotoxicity against human PC3 cells after 6 days by MTT method; assay type: functional, cell-based; settings: PC-3, 144 h

In the case of `CC1(C)CCC(=O)[C@@]2(C)OO[C@H]3C[C@]12CCC3=O` [TALAPEROXIDE C], the Activity [1] was “inactive”, the IC50 [2] was 2.64 µg/mL (≈ 10.5 µM) and the Activity [3] was “inactive”. The IC50 [4] was 12.7 µg/mL (≈ 50.4 µM), the Activity [5] was “inactive” and the LD50 [6] was less than 10 ppm. The Activity [7] was “inactive”, the IC50 [8] was 15.1 µg/mL (≈ 59.9 µM) and the Activity [9] was “inactive”. The IC50 [10] was 6.63 µg/mL (≈ 26.3 µM), the Activity [11] was “inactive” and the IC50 [12] was 4.34 µg/mL (≈ 17.2 µM).

`CC1(C)CCC(=O)[C@@]2(C)OO[C@@H]3C[C@@]12CC[C@H]3O` [MERULIN A] was tested, and the Activity [1] was “inactive”, the IC50 [2] was 1.9 µg/mL (≈ 7.47 µM) and the Activity [3] was “inactive”. The IC50 [4] was 7.97 µg/mL (≈ 31.3 µM), the Activity [5] was “inactive” and the LD50 [6] was less than 10 ppm. The Activity [7] was “inactive”, the IC50 [8] was 6.79 µg/mL (≈ 26.7 µM) and the Activity [9] was “inactive”. The IC50 [10] was 4.17 µg/mL (≈ 16.4 µM), the Activity [11] was “inactive” and the IC50 [12] was 1.82 µg/mL (≈ 7.16 µM).

In the case of `CC(=O)O[C@H]1CC[C@]23C[C@@H]1OO[C@@]2(C)C(=O)CCC3(C)C` [TALAPEROXIDE B], the Activity [1] was “inactive”, the IC50 [2] was 2.78 µg/mL (≈ 9.38 µM) and the Activity [3] was “inactive”. For the same compound, the IC50 [4] was 1.73 µg/mL (≈ 5.84 µM), the Activity [5] was “inactive” and the LD50 [6] was less than 10 ppm. The Activity [7] was “inactive”, the IC50 [8] was 1.29 µg/mL (≈ 4.35 µM) and the Activity [9] was “inactive”. For the same compound, the IC50 [10] was 1.33 µg/mL (≈ 4.49 µM), the Activity [11] was “inactive” and the IC50 [12] was 0.89 µg/mL (≈ 3 µM).

`COc1cccc2c1C(=O)c1c(O)c3c(c(O)c1C2=O)C[C@@](O)(C(=O)CO)C[C@@H]3O[C@H]1C[C@H](N)[C@@H](O)[C@H](C)O1` [EPIRUBICIN] was tested, and the IC50 [2] was 0.33 µg/mL (≈ 0.607 µM), the IC50 [8] was 0.56 µg/mL (≈ 1.03 µM) and the IC50 [10] was 0.56 µg/mL (≈ 1.03 µM). The IC50 [12] was 0.16 µg/mL (≈ 0.294 µM).

For `CC(=O)O[C@H]1CC[C@]23C[C@@H]1OO[C@]2(C)C(=O)CCC3(C)C` [TALAPEROXIDE A], the Activity [1] was “inactive”, the IC50 [2] was 11.8 µg/mL (≈ 39.7 µM) and the Activity [3] was “inactive”. The IC50 [4] was 13.7 µg/mL (≈ 46.2 µM), the Activity [5] was “inactive” and the LD50 [6] was less than 10 ppm. The Activity [7] was “inactive”, the IC50 [8] was 12.9 µg/mL (≈ 43.6 µM) and the Activity [9] was “inactive”. For the same compound, the IC50 [10] was 19.8 µg/mL (≈ 66.7 µM), the Activity [11] was “inactive” and the IC50 [12] was 5.7 µg/mL (≈ 19.2 µM).

In the case of `CC1(C)CCC(=O)[C@]2(C)OO[C@H]3C[C@]12CCC3=O` [TALAPEROXIDE D], the Activity [1] was “inactive”, the IC50 [2] was 0.91 µg/mL (≈ 3.61 µM) and the Activity [3] was “inactive”. For the same compound, the IC50 [4] was 1.31 µg/mL (≈ 5.19 µM), the Activity [5] was “inactive” and the LD50 [6] was less than 10 ppm. For the same compound, the Activity [7] was “inactive”, the IC50 [8] was 0.9 µg/mL (≈ 3.57 µM) and the Activity [9] was “inactive”. For the same compound, the IC50 [10] was 1.92 µg/mL (≈ 7.61 µM), the Activity [11] was “inactive” and the IC50 [12] was 0.7 µg/mL (≈ 2.77 µM).
